# The supplement of paper PMC10307832
# Legend:
# Test in all cases: relative viability (nuclei count vs DMSO), 5 days (fraction); higher = more cells survive
# NCI-H1793 = system: NCI-H1793
# How it was run: (§1)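 Relative viability was taken as the ratio of nuclei in treated wells to nuclei in vehicle wells. Lung cancer cell lines in 1536-well plates received compounds by pin tool one day after seeding, either one drug alone or a fixed anchor-drug dose plus five library-drug doses (not always all listed) in √10 steps. Nuclei were counted on 4× images after 5 days of treatment, and values are medians of duplicate plates.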
# NCI-H2405 = system: NCI-H2405
# How it was run: as §1
# NCI-H2023 = system: NCI-H2023
# How it was run: as §1
# NCI-H647 = system: NCI-H647
# How it was run: as §1
# NCI-H1563 = system: NCI-H1563
# How it was run: as §1
# NCI-H520 = system: NCI-H520
# How it was run: as §1
# PC-14 = system: PC-14
# How it was run: as §1
# NCI-H1734 = system: NCI-H1734
# How it was run: as §1
# COR-L23 = system: COR-L23
# How it was run: as §1
# NCI-H3122 = system: NCI-H3122
# How it was run: as §1
# EPLC-272H = system: EPLC-272H
# How it was run: as §1
# RERF-LC-KJ = system: RERF-LC-KJ
# How it was run: as §1
# ABC-1 = system: ABC-1
# How it was run: as §1
# HCC-44 = system: HCC-44
# How it was run: as §1
# NCI-H1993 = system: NCI-H1993
# How it was run: as §1
# EKVX = system: EKVX
# How it was run: as §1
# LOU-NH91 = system: LOU-NH91
# How it was run: as §1
# NCI-H2347 = system: NCI-H2347
# How it was run: as §1
# 201T = system: 201T
# How it was run: as §1
# NCI-H2085 = system: NCI-H2085
# How it was run: as §1
# NCI-H441 = system: NCI-H441
# How it was run: as §1
compound,measurement,setting,value
COc1cc(N2CCC(C(N)=O)CC2)ccc1Nc1nc(N)c(Cl)c(Nc2ccccc2S(=O)(=O)C(C)C)n1 [HG-5-88-01] + C[C@]1(O)C[C@@H](c2nc(-c3ccc4ccc(-c5ccccc5)nc4c3)c3c(N)nccn32)C1 [Linsitinib] (partner 1 µM),relative viability,NCI-H1793; first compound 0.1265 µM,1.05
same,relative viability,NCI-H1793; first compound 0.4 µM,0.856
same,relative viability,NCI-H1793; first compound 1.265 µM,0.809
same,relative viability,NCI-H1793; first compound 4 µM,1.18
same,relative viability,NCI-H2405; first compound 0.04 µM,1.06
same,relative viability,NCI-H2405; first compound 0.1265 µM,1.01
same,relative viability,NCI-H2405; first compound 0.4 µM,0.807
same,relative viability,NCI-H2405; first compound 1.265 µM,0.714
same,relative viability,NCI-H2405; first compound 4 µM,1.02
same,relative viability,NCI-H2023; first compound 0.04 µM,0.695
same,relative viability,NCI-H2023; first compound 0.1265 µM,0.683
same,relative viability,NCI-H2023; first compound 0.4 µM,0.619
same,relative viability,NCI-H2023; first compound 1.265 µM,0.539
same,relative viability,NCI-H2023; first compound 4 µM,0.762
same,relative viability,NCI-H647; first compound 0.04 µM,1.21
same,relative viability,NCI-H647; first compound 0.1265 µM,1.38
same,relative viability,NCI-H647; first compound 1.265 µM,1.08
same,relative viability,NCI-H647; first compound 4 µM,1.12
same,relative viability,NCI-H1563; first compound 0.04 µM,1.1
same,relative viability,NCI-H1563; first compound 0.1265 µM,1.17
same,relative viability,NCI-H1563; first compound 0.4 µM,1.23
same,relative viability,NCI-H1563; first compound 1.265 µM,1.21
same,relative viability,NCI-H1563; first compound 4 µM,1.21
same,relative viability,NCI-H520; first compound 0.04 µM,0.926
same,relative viability,NCI-H520; first compound 0.1265 µM,0.832
same,relative viability,NCI-H520; first compound 0.4 µM,0.689
same,relative viability,NCI-H520; first compound 1.265 µM,1.18
same,relative viability,NCI-H520; first compound 4 µM,1.14
same,relative viability,PC-14; first compound 0.04 µM,0.977
same,relative viability,PC-14; first compound 0.1265 µM,1.02
same,relative viability,PC-14; first compound 0.4 µM,0.955
same,relative viability,PC-14; first compound 1.265 µM,0.917
same,relative viability,PC-14; first compound 4 µM,0.331
same,relative viability,NCI-H1734; first compound 0.04 µM,0.811
same,relative viability,NCI-H1734; first compound 0.1265 µM,0.851
same,relative viability,NCI-H1734; first compound 0.4 µM,0.964
same,relative viability,NCI-H1734; first compound 1.265 µM,0.885
same,relative viability,NCI-H1734; first compound 4 µM,1.02
same,relative viability,COR-L23; first compound 0.04 µM,0.885
same,relative viability,COR-L23; first compound 0.1265 µM,0.888
same,relative viability,COR-L23; first compound 0.4 µM,0.872
same,relative viability,COR-L23; first compound 1.265 µM,0.738
same,relative viability,COR-L23; first compound 4 µM,0.757
same,relative viability,NCI-H3122; first compound 0.04 µM,0.914
same,relative viability,NCI-H3122; first compound 0.1265 µM,0.379
same,relative viability,NCI-H3122; first compound 0.4 µM,0.197
same,relative viability,NCI-H3122; first compound 1.265 µM,0.2
same,relative viability,NCI-H3122; first compound 4 µM,0.226
same,relative viability,EPLC-272H; first compound 0.04 µM,1.09
same,relative viability,EPLC-272H; first compound 0.1265 µM,1.25
same,relative viability,EPLC-272H; first compound 0.4 µM,1.38
same,relative viability,EPLC-272H; first compound 1.265 µM,1.02
same,relative viability,EPLC-272H; first compound 4 µM,0.264
same,relative viability,RERF-LC-KJ; first compound 0.04 µM,0.823
same,relative viability,RERF-LC-KJ; first compound 0.1265 µM,0.897
same,relative viability,RERF-LC-KJ; first compound 0.4 µM,0.849
same,relative viability,RERF-LC-KJ; first compound 1.265 µM,0.864
same,relative viability,RERF-LC-KJ; first compound 4 µM,0.539
same,relative viability,ABC-1; first compound 0.04 µM,0.679
same,relative viability,ABC-1; first compound 0.1265 µM,0.894
same,relative viability,ABC-1; first compound 0.4 µM,0.815
same,relative viability,ABC-1; first compound 1.265 µM,0.668
same,relative viability,ABC-1; first compound 4 µM,1.01
same,relative viability,HCC-44; first compound 0.04 µM,0.806
same,relative viability,HCC-44; first compound 0.1265 µM,0.672
same,relative viability,HCC-44; first compound 0.4 µM,0.56
same,relative viability,HCC-44; first compound 1.265 µM,0.648
same,relative viability,HCC-44; first compound 4 µM,0.751
same,relative viability,NCI-H1993; first compound 0.04 µM,0.807
same,relative viability,NCI-H1993; first compound 0.1265 µM,0.697
same,relative viability,NCI-H1993; first compound 0.4 µM,0.732
same,relative viability,NCI-H1993; first compound 1.265 µM,0.61
same,relative viability,NCI-H1993; first compound 4 µM,0.722
same,relative viability,EKVX; first compound 0.04 µM,0.972
same,relative viability,EKVX; first compound 0.1265 µM,1.11
same,relative viability,EKVX; first compound 0.4 µM,0.889
same,relative viability,EKVX; first compound 4 µM,1.03
same,relative viability,LOU-NH91; first compound 0.04 µM,1
same,relative viability,LOU-NH91; first compound 0.1265 µM,0.916
same,relative viability,LOU-NH91; first compound 0.4 µM,0.841
same,relative viability,LOU-NH91; first compound 1.265 µM,0.609
same,relative viability,LOU-NH91; first compound 4 µM,0.659
same,relative viability,NCI-H2347; first compound 0.04 µM,0.988
same,relative viability,NCI-H2347; first compound 0.1265 µM,0.933
same,relative viability,NCI-H2347; first compound 0.4 µM,1.1
same,relative viability,NCI-H2347; first compound 1.265 µM,0.959
same,relative viability,NCI-H2347; first compound 4 µM,1.03
same,relative viability,201T; first compound 0.04 µM,1.02
same,relative viability,201T; first compound 0.1265 µM,1.04
same,relative viability,201T; first compound 0.4 µM,1.04
same,relative viability,201T; first compound 1.265 µM,0.945
same,relative viability,201T; first compound 4 µM,1.19
same,relative viability,NCI-H2085; first compound 0.04 µM,0.913
same,relative viability,NCI-H2085; first compound 0.1265 µM,0.924
same,relative viability,NCI-H2085; first compound 0.4 µM,0.809
same,relative viability,NCI-H2085; first compound 1.265 µM,0.748
same,relative viability,NCI-H2085; first compound 4 µM,0.92
same,relative viability,NCI-H441; first compound 0.04 µM,0.662
same,relative viability,NCI-H441; first compound 0.1265 µM,0.536
same,relative viability,NCI-H441; first compound 0.4 µM,0.821
same,relative viability,NCI-H441; first compound 1.265 µM,0.399
same,relative viability,NCI-H441; first compound 4 µM,0.586
